In patent US20230021442A1, “PHENOTHIAZINE FERROPTOSIS INHIBITOR, PREPARATION METHOD THEREFOR AND APPLICATION THEREOF” (CHENGDU HENGHAO INNOVATIVE SCIENCE AND TECHNOLOGY CO., LTD., priority 2019, published 2023):

Tested on: fibrosarcoma cell line
Assay: screening model for ferroptosis, MTT cell viability assay with ferroptosis inducer Erastin
Format: cell-based
Conditions: Erastin 10 μM; 72 h; average of three tests
Protocol: In this example, in order to study the inhibitor of ferroptosis, a screening model for ferroptosis was constructed in house, and the details are as follows:
The screening model for ferroptosis mainly used the MTT cell viability assay. First, the fibrosarcoma cell line was cultured in a dish, and the cells in the logarithmic growth phase were seeded in a 96-well plate in specific numbers (3000-10000 cells/well), 100 μL per well, and then cultured in an incubator at 37° C. and 5% CO2 to allow the cells to adhere. After 24 h, 100 μL of compounds at certain concentrations prepared in the indicated medium and the ferroptosis inducer Erastin (final concentration of 10 μM) were added, and wells in triplicate were set up for each compound to ensure the accuracy of the results. A negative control group, positive control group (5 μM of ferrostain-1), blank control group and solvent control group were also set. After dosing, cells were placed in the incubator and cultured for 72h. […] The next day, the absorbance value at 570 nm was detected with a microplate reader to calculate the inhibition rate of the drug on ferroptosis. Generally, the absorbance value of the control group should be between 0.8-1.2 as a normal value. After obtaining the absorbance value data, the average value of wells in triplicate was calculated, and the inhibition rate was calculated using the following formula: […]

EC50: 58 nM
Compound: C=C(c1ccc2c(c1)Nc1ccccc1S2)c1cnc2c(cnn2C)c1 [Compound 28]
